Tests used:
human PRMT5/MEP50 = target: T1, human PRMT5/MEP50 (Homo sapiens, UniProt O14744); assay: PRMT5 chemiluminescent assay; assay type: biochemical; conditions: human PRMT5/MEP50 expressed in HEK293 cells, biotinylated histone peptides, 60 min reaction; read-out: PRMT5 pIC50 (converted)
T1 construct: host or cells: HEK293 cells
Protocol: A PRMT5 chemiluminescent assay was used to measure the IC50 activity of PRMT5 of the compounds of CEx and Examples 1 to 8 above. Biotinylated histone peptides were synthesized and attached to 384-well plates. Compound serial dilutions were performed and added to the assay plate. Histone H4 monomethyl R^3 antibody was obtained from Abcam. A master mix for each well was prepared and human PRMT5/MEP50 (expressed in HEK293 cells) diluted in assay buffer to a concentration of 5 ng/μL. The reaction was incubated and slowly rotated for 60 minutes at the point of PRMT5/MEP50 addition. The supernatant from the wells was removed and blocking buffer was added to each well and rotated for 10 minutes. The primary antibody was diluted and added to every well for 60 minutes, before it was removed and the wells washed. The horse radish peroxidase (HRP)-coupled secondary antibody was diluted and added to each well with an incubation time of 30 minutes. The HRP chemiluminescent substrate was added to every well. The plate was read on a Flourstar Omega BMG Labtech instrument (Ortenberg, Germany) and the analysis of IC50 was performed using the Flourstar Omega BMG Labtech software.

[1] = Hepatocyte stability assay (Human Hep Clint); assay type: in vitro ADME; conditions: cryopreserved pooled human hepatocytes, 0.5 × 10^6 cells/mL, 1 μM test compound, up to 90 min
Protocol: The activity of the compounds was tested using several industry accepted methods. These included methods to measure the human hepatocyte clearance values (Human Hep Clint) and a PRMT5 assay. The methods that were used were conventional.
Cell viability was tested by trypan blue exclusion after thawing.
Thawing Medium: Williams' Medium E containing 5% fetal bovine serum and 30% Percoll solution and other supplements.
Incubation Medium: Williams' Medium E (no phenol red) containing 2 mM L-Glutamine and 25 mM HEPES.
Stop Solution: Acetonitrile containing 200 ng/ml tolbutamide and labetalol as internal standards.
The following steps were performed. • 1. 10 mM test compounds were provided by Compound Sample Group. • 2. 30 mM positive control stock solutions: Dissolved accurate amount of positive control compounds in dimethyl sulfoxide (DMSO). • 3. 1000× Stock Solution: Diluted 10 mM test compounds and 30 mM positive control compounds to 1 mM and 3 mM with DMSO in 96-well plates. • 4. 100× Dosing Solution: Diluted 1 mM test compounds and 3 mM positive control compounds to 100 µM and 300 µM dosing solutions with ACN. • 5. Preparation of 0.5×10^6/mL cells suspension: cryopreserved cells were thawed, isolated and suspended in Incubation Medium, then diluted with pre-warmed Incubation Medium to 0.5×10^6 cells/mL. • 6. Add 198 μL of pre-warmed cell suspensions in 96-well plates. • 7. Preparation of Quenching Plate: Transfer 125 μL of stop solution (acetonitrile containing 200 ng/ml tolbutamide and 200 ng/ml labetalol as internal standards) in a set of pre-labelled 96-well plates. • 8. Spike 2 μL dosing solution to each well of 96-well plates in duplicates. • 9. For T0 Samples, mix to achieve a homogenous suspension for about 1 min, then immediately transfer 25 μL of each sample into well containing 125 μL of ice-cold stop solution followed by mixing. • 10. Incubate all plates at 37° ° C. in a 95% humidified incubator at 5% CO2 to start the reactions with constant shaking at about 600 rpm. • 11. At 15, 30, 60 and 90 min, mix samples and then transfer 25 μL of each sample at each time point to well containing 125 μL of ice-cold stop solution followed by mixing. • 12. Medium Control (MC) sample plates (labelled as T0-MC and T90-MC) are prepared at TO and T90 by adding the same components to each well except cell suspensions. • 13. At each corresponding time point, stop the reactions by removing the plates from incubator and mixing with 125 μL of ice-cold stop solution. • 14. Vortex the plates immediately on a plate shaker at 500 rpm for 10 minutes. Then, centrifuge all sample plates at 3220× g for 20 min at 4° C. • 15. After centrifugation, 80 μL/well of supernatant in the sample plates are transferred to another set of pre-labelled 96-well plates which containing 240 μL of ultra pure water according to the plate map. • 16. Analytical plates are sealed and store at 4° C. until LC-MS/MS analysis.
The remaining percents of test articles after incubation were calculated by the follow equations: […]
Use equation of first order kinetics to calculate t1/2 and CLint. Equation of first order kinetics:
[formula] [formula] CLint (hep)=k/million cells per mL
CLint (liver)=CLint (hep)·liver weight (g/kg body weight)*hepatocellularity

T1 sequence (O14744 whole entry): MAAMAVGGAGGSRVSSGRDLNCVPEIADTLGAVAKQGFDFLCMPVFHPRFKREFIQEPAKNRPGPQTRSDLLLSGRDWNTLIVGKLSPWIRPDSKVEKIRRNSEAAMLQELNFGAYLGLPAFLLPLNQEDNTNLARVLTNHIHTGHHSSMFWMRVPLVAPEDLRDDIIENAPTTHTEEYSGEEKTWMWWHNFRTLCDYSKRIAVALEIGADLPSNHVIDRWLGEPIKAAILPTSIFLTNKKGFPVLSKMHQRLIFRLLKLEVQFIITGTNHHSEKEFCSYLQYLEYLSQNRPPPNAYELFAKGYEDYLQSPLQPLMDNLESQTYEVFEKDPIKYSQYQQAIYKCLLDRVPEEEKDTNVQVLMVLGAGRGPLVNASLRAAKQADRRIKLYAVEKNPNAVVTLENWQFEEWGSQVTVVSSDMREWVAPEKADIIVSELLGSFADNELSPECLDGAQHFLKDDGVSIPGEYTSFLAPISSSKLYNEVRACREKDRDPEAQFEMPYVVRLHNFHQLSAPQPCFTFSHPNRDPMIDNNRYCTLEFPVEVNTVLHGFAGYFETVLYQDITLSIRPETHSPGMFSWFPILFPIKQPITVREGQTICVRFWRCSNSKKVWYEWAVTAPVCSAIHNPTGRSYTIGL
T1 sequence (Q9BQA1 whole entry partner): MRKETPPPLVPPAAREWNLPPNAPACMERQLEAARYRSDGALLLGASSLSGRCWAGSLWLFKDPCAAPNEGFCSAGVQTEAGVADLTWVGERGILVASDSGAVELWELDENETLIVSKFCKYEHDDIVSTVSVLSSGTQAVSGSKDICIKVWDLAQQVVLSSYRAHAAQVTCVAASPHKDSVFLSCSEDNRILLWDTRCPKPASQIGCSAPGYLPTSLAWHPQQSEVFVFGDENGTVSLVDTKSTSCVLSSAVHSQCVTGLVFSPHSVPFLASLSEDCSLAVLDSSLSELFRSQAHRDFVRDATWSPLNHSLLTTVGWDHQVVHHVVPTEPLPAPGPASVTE

IC50 (human PRMT5/MEP50) [nM]	hepatocyte CLint at 1 μM [1] [µL/min/1e6 cells]	Compound
20	–	[2H]C1([2H])CN(C[C@@H](O)CNC(=O)N2CCC[C@@H](N3CCCCC3=O)C2)C([2H])([2H])c2ccccc21 [Ex. 5, (R)—N—((S)-3-(3,4-dihydroisoquinolin-2(1H)-yl-1,1,4,4-d4)-2-hydroxypropyl)-2-oxo-[1,3′-bipiperidine]-1′-carboxamide]
12.6	< 6.4	CN1CCCN([C@@H]2CCCN(C(=O)NC[C@H](O)CN3CCc4ccccc4C3)C2)C1=O [Ex. 8, (R)—N—((S)-3-(3,4-dihydroisoquinolin-2(1H)-yl)-2-hydroxypropyl)-3-(3-methyl-2-oxotetrahydropyrimidin-1(2H)-yl)piperidine-1-carboxamide]
12.6	54.1	O=C(NC[C@H](O)CN1CCc2ccccc2C1)N1CCC[C@@H](c2ccccc2)C1 [CEx, reference compound]
31.6	2.5	CC1CCC(=O)N([C@@H]2CCCN(C(=O)NC[C@H](O)CN3CCc4ccccc4C3)C2)C1 (stereo partly drawn) [Ex. 3, (3′R)—N—((S)-3-(3,4-dihydroisoquinolin-2(1H)-yl)-2-hydroxypropyl)-5-methyl-2-oxo-[1,3′-bipiperidine]-1′-carboxamide]
15.8	< 3	O=C(NC[C@H](O)CN1CCc2ccccc2C1)N1CCC[C@@H](N2CCCCC2=O)C1 [Ex. 2, (R)—N—((S)-3-(3,4-dihydroisoquinolin-2(1H)-yl)-2-hydroxypropyl)-2-oxo-[1,3′-bipiperidine]-1′-carboxamide]
12.6	< 6	CC1CCCN([C@@H]2CCCN(C(=O)NC[C@H](O)CN3CCc4ccccc4C3)C2)C1=O (stereo partly drawn) [Ex. 6, (3′R)—N—((S)-3-(3,4-dihydroisoquinolin-2(1H)-yl)-2-hydroxypropyl)-3-methyl-2-oxo-[1,3′-bipiperidine]-1′-carboxamide]
7.94	10.8	Cc1ccnn([C@@H]2CCCN(C(=O)NC[C@H](O)CN3CCc4ccccc4C3)C2)c1=O [Ex. 7, (R)—N—((S)-3-(3,4-dihydroisoquinolin-2(1H)-yl)-2-hydroxypropyl)-3-(5-methyl-6-oxopyridazin-1(6H)-yl)piperidine-1-carboxamide]
31.6	2.5	[2H]C1([2H])c2ccccc2CCN1C[C@@H](O)CNC(=O)N1CCC[C@@H](N2CCCCC2=O)C1 [Ex. 4, (R)—N—((S)-3-(3,4-dihydroisoquinolin-2(1H)-yl-1,1-d2)-2-hydroxypropyl)-2-oxo-[1,3′-bipiperidine]-1′-carboxamide]
50.1	1.7	O=C(NC[C@H](O)CN1CCc2ccccc2C1)N1CCC[C@@H](N2CCCC2=O)C1 [Ex. 1, (R)—N—((S)-3-(3,4-dihydroisoquinolin-2(1H)-yl)-2-hydroxypropyl)-3-(2-oxopyrrolidin-1-yl)piperidine-1-carboxamide]
